Entries after “also recorded” stand apart in the source; their conditions may differ.
Tests used:
[1] = tested on: cells of lung sputum sample; experiment: Fluorescence spectral imaging (LCTF/CCD) of TCPP-labeled lung sputum cells on slides; format: cell-based, human; conditions: fixed sputum cells on slide, images separated by spectral emission (530 nm vs 660 nm layers)
Text: According to one embodiment of the present invention, a biological specimen, for example a sputum sample is processed using a thin prep protocol onto a microscope slide. […] Minimizing corrosive effects to the plasma membrane is important as the TCPP is shown to localize on the plasma membrane of the cell surface. The cells are processed to separate the cells from the mucous and cell fragments. Each prepared slide contains a monolayer of the sputum cells. After preparing the slides, the labeling reagent TCPP is dissolved in concentrations between 0.05 ug/ml-4.0 ug/ml in an aqueous alcohol containing between 50% and 90% isopropanol alcohol solution. […]
To gather our data an image capture system having a detector capable of quantifying emission of photons from a TCPP labeled cell across light spectrum from about 350 nm to about 800 nm was employed according to one embodiment of the present invention. […]
Referring now to FIG. 1 is a cell labeled or stained with TCPP according to one embodiment of the present invention. […] The autofluorescence of the cells is detected in the green channel 560 +/−30nm and the fluorescence of the TCPP labeling compound on the cell is detected in the red channel 660 +/−30 nm. […] By tuning the LCTF to different frequencies during imaging, the system permits information to be gathered and analyzed over a broad spectrum. […]

neoplastic cells = conditions: cell sample incubated 6-24 hours with 200 μg/ml TCPP; cited from earlier work

O=C(O)c1ccc(-c2c3nc(c(-c4ccc(C(=O)O)cc4)c4ccc([nH]4)c(-c4ccc(C(=O)O)cc4)c4nc(c(-c5ccc(C(=O)O)cc5)c5ccc2[nH]5)C=C4)C=C3)cc1 [TCPP, 5, 10, 15, 20 tetrakis (4-carboxyphenyl) porphine]
location of TCPP in cell structures [1]: emitted exclusively from the plasma membrane; also recorded: adheres only to surface features and does not migrate into internal cell structures | location of TCPP in cells after incubation (neoplastic cells): entered cells and bound to the perinuclear membrane and mitochondria of neoplastic cells

— patent US20150160197A1, “System and Method for Analyzing Samples Labeled with 5, 10, 15, 20 Tetrakis (4-Carboxyphenyl) Porphine (TCPP)” (bioAffinity Technologies, Inc., priority 2009, published 2015)
